Assay: Decomposition rate constant (kobs) of formoterol in aqueous solution
Type: physicochemical
Conditions: for rate constant (kobs) for decomposition: aqueous solution, 60° C., ionic strength 0.05
From the text: In the embodiments herein, the compositions have a pH of about 2.0 to about 8.0, or 2.0 to 8.0. In other embodiments, the compositions have a pH of about 4.0 to about 6.0, or 4.0 to 6.0. In other embodiments, the pH is about 4.5 to about 5.5, or 4.5 to 5.5. In certain of the above embodiments, the compositions are formulated at a pH of about 4, 4.4 or 4.6 up to about 5.5, 5.7 or 6; or 4, 4.4 or 4.6 up to 5.5, 5.7 or 6. In other embodiments, the pH is about 5.0, or 5.0. […] The rate constant (kobs) at 60° C. at a pH of 3, 4, 5 and 7 is approximately 0.62, 0.11, 0.044 and 0.55 day^-1, respectively.
In other of the above embodiments, the compositions further contain a buffer, including, but not limited to, citric acid/phosphate, acetate, barbital, borate, Britton-Robinson, cacodylate, citrate, collidine, formate, maleate, McIlvaine, phFosphate, Prideaux-Ward, succinate, citrate-phosphate-borate (Teorell-Stanhagen), veronal acetate, MES (2-(N-morpholino)ethanesulfonic acid), BIS-TRIS (bis(2-hydroxyethyl)imino-tris-(hydroxymethyl)methane), ADA (N-(2-acetamido)-2-iminodiacetic acid), ACES (N-(carbamoylmethyl)-2-aminoethanesulfonic acid), PIPES (piperazine-N,N′-bis(2-ethanesulfonic acid)), MOPSO (3-(N-morpholino)-2-hydroxypropanesulfonic acid), BISTRIS PROPANE (1,3-bis(tris(hydroxymethyl)methylamino)propane), BES (N,N-bis(2-hydroxyethyl)-2-aminoethanesulfonic acid), MOPS (3-(N-morpholino)propanesulfonic acid), TES (N-tris(hydroxymethyl)methyl-2-aminoethanesulfonic acid), HEPES (N-(2-hydroxyethyl)-piperazine-N′-(2-eth-anesulfonic acid), DIPSO (3-(N,N-bis(2-hydroxyethyl)amino)-2-hydroxypropan-esulfonic acid), MOBS (4-(N-morpholino)-butanesulfonic acid), TAPSO (3-(N-tris(hydroxymethyl)methylamino)-2-hydroxypropanesulfonic acid), TRIZMA® (tris(hydroxymethylaminomethane), HEPPSO(N-(2-hydroxyethyl)piperazine-N′-(2-hydroxypropanesulfonic acid), POPSO (piperazine-N,N′-bis(2-hydroxypropanesulfonic acid)), TEA (triethanolamine), EPPS (N-(2-hydroxyethyl)piperazine-N′-(3-propanesulfon-ic acid), TRICINE (N-tris(hydroxy-methyl)methylglycine), GLY-GLY (glycylglycine), BICINE (N,N-bis(2-hydroxyethyl)glycine), HEPBS (N-(2-hydroxyethyl)piperazine-N′-(4-butanesulfonic acid)), TAPS(N-tris(hydroxymethyl)methyl-3-aminopropanesulfonic acid), AMPD (2-amino-2-methyl-1,3-propanediol), and/or any other buffers known to those of skill in the art. In one embodiment, the buffer is citric acid/phosphate buffer, acetate buffer, citrate buffer or phosphate buffer. In another embodiment, the buffer is a citrate buffer (citric acid/sodium citrate). […] Buffer concentrations for use include from about 0 or 0.01 mM to about 150 mM, or 0 or 0.01 mM to 150 mM. In another embodiment, the buffer concentration is about 1 mM to about 20 mM, or 1 mM to 20 mM. In one embodiment, the buffer concentration is about 5 mM, or 5 mM. In other embodiments, the buffer concentration is about 1 mM to about 50 mM, or 1 mM to 50 mM. […] The particular buffer and buffer concentration of a given composition for long term storage provided herein may be determined empirically using standard stability assays well known to those of skill in the art (see, e.g., the Examples).
Ionic strengths of the compositions provided herein are from about 0 to about 0.4, or 0 to 0.4. […] The particular ionic strength of a given composition for long term storage provided herein may be determined empirically using standard stability assays well known to those of skill in the art (see, e.g., the Examples). […]

Compound: COc1ccc(CC(C)NCC(O)c2ccc(O)c(NC=O)c2)cc1 (racemic) [formoterol, 2-hydroxy-5-((1RS)-1-hydroxy-2-(((1RS)-2-(p-methoxyphenyl)-1-methylethyl)amino)ethyl)formanilide]
- rate constant (kobs) for decomposition (pH 3, buffer concentration 5 mM): approximately 0.62 day^-1
- rate constant (kobs) for decomposition (pH 4, buffer concentration 5 mM): ~0.11 day⁻¹
- rate constant (kobs) for decomposition (pH 5, buffer concentration 5 mM): ~0.044 day⁻¹
- rate constant (kobs) for decomposition (pH 7, buffer concentration 5 mM): ~0.55 day⁻¹
- effect of buffer concentration on rate constant of decomposition (pH region of about 4.5 to about 5.5, buffer concentration from 5 mM to 20 mM): no noticeable differences in rate constant
